From US9211310B2, “Use of a Chinese medicine composition in preparing medicaments for treating secondary prevention of myocardial infarction” (TASLY PHARMACEUTICAL GROUP CO., LTD, priority 2010, dated 2015)

System: patients after acute myocardial infarction
Assay: Life quality, Seattle Angina Questionnaire (SAQ), same clinical trial
Format: in vivo, human
Settings: FAS
From the text: 3508 patients who were in accordance with the diagnostic standards of AMI for 28 days to 2 years and differentiated as Qi deficiency and blood stagnation syndrome by TCM were studied. 0.5 g Chinese medicine composition prepared by the method of EXAMPLE 1 (Coded as QSYQ) was administrated half an hour after meal, 3 times per day.
There were 19 questions in the Seattle angina questionnaire (SAQ), including 5 parts: physical limitation (PL), anginal stability (AS), anginal frequency (AF), treatment satisfaction (TS) and disease perception (DP). After being given necessary explanation by doctors, the questions were answered independently by patients.
They included the overall survival time, angina pectoris score, TCM symptom score and life quality score, where angina pectoris score, TCM symptom score and life quality score were evaluated at randomization, in 1st, 3rd, 6th, 9th, 12th month after treatment and 18th month after follow-up.
All evaluation results of SAQ were described during the period of observation, and Wilcoxon rank sum test was used for inter-group comparison.
The evaluation results in the SAQ were depicted in different observations, and inter-group comparison was tested by Wilcoxon Rank-sum test.

In the case of `CC(=O)Oc1ccccc1C(=O)O` [Control group, aspirine], the “SAQ Question 1-8: Mildly limited, patients (%)” value (6 months after treatment) is reported as “(25.30%)”, the “SAQ Question 1-8: Moderately limited, patients (%)” value (6 months after treatment) is reported as “(16.42%)” and the “SAQ Question 1-8: Not limited, patients (%)” value (6 months after treatment) is reported as “(10.62%)”. For the same compound, the “SAQ Question 1-8: Other reasons, patients (%)” value (6 months after treatment) was “(3.77%)”, the “SAQ Question 1-8: Severely limited, patients (%)” value (6 months after treatment) was “(19.38%)” and the “SAQ Question 1-8: Slightly limited, patients (%)” value (6 months after treatment) was “(24.49%)”. For the same compound, the “8th question: Mostly satisfied, patients (%)” value (6 months after treatment, second line of the scale) was “(2.24%)”, the “8th question: Dissatisfied, patients (%)” value (9 months after treatment) was “(0.34%)” and the “8th question: Highly satisfied, patients (%)” value (9 months after treatment) was “(22.36%)”. The “8th question: Mostly dissatisfied, patients (%)” value (9 months after treatment) was “(1.89%)”, the “8th question: Mostly satisfied, patients (%)” value (9 months after treatment) was “(58.31%)” and the “8th question: Partly satisfied, patients (%)” value (9 months after treatment) was “(17.09%)”. The “9th question: Few, patients (%)” value (9 months after treatment) was “(37.79%)”, the “9th question: Mild, patients (%)” value (9 months after treatment) was “(33.08%)” and the “9th question: Moderate, patients (%)” value (9 months after treatment) was “(8.77%)”. For the same compound, the “9th question: Severe, patients (%)” value (9 months after treatment) was “(0.97%)”, the “9th question: Uneffective, patients (%)” value (9 months after treatment) was “(19.38%)” and the “10th question: Dissatisfied, patients (%)” value (9 months after treatment) was “(19.55%)”. For the same compound, the “10th question: Highly satisfied, patients (%)” value (9 months after treatment) was “(5.73%)”, the “10th question: Mostly dissatisfied, patients (%)” value (9 months after treatment) was “(20.47%)” and the “10th question: Mostly satisfied, patients (%)” value (9 months after treatment) was “(28.84%)”. For the same compound, the “10th question: Partly satisfied, patients (%)” value (9 months after treatment) was “(25.40%)”, the “11th question: Continuously worried, patients (%)” value (9 months after treatment) was “(3.44%)” and the “11th question: No worried, patients (%)” value (9 months after treatment) was “(6.02%)”. For the same compound, the “11th question: Occasionally worried, patients (%)” value (9 months after treatment) was “(41.80%)”, the “11th question: Often worried, patients (%)” value (9 months after treatment) was “(12.33%)” and the “11th question: Seldom worried, patients (%)” value (9 months after treatment) was “(36.41%)”. For the same compound, the “SAQ 4th question, 1-2 times per week: % of patients” value (9 months after treatment) was “(15.60%)”, the “SAQ 4th question, 1-2 times per week: number of patients” value (9 months after treatment) was 272 and the “SAQ 4th question, 1-3 times per week: % of patients” value (9 months after treatment) was “(4.30%)”. The “SAQ 4th question, 1-3 times per week: number of patients” value (9 months after treatment) was 75, the “SAQ 4th question, <1 time per week: % of patients” value (9 months after treatment) was “(15.14%)” and the “SAQ 4th question, <1 time per week: number of patients” value (9 months after treatment) was 264. For the same compound, the “SAQ 4th question, Not used: % of patients” value (9 months after treatment) was “(59.69%)”, the “SAQ 4th question, Not used: number of patients” value (9 months after treatment) was 1041 and the “SAQ 4th question, ≧3 times per week: % of patients” value (9 months after treatment) was “(5.16%)”. For the same compound, the “SAQ 4th question, ≧3 times per week: number of patients” value (9 months after treatment) was 90, the “SAQ 4th question, ≧4 times per day: % of patients” value (9 months after treatment) was “(0.11%)” and the “SAQ 4th question, ≧4 times per day: number of patients” value (9 months after treatment) was 2. For the same compound, the “SAQ 5th question, 1-2 times per week: % of patients” value (9 months after treatment) was “(28.67%)”, the “SAQ 5th question, 1-2 times per week: number of patients” value (9 months after treatment) was 500 and the “SAQ 5th question, 1-3 times per day: % of patients” value (9 months after treatment) was “(7.97%)”. The “SAQ 5th question, 1-3 times per day: number of patients” value (9 months after treatment) was 139, the “SAQ 5th question, <1 time per week: % of patients” value (9 months after treatment) was “(28.56%)” and the “SAQ 5th question, <1 time per week: number of patients” value (9 months after treatment) was 498. For the same compound, the “SAQ 5th question, No onset: % of patients” value (9 months after treatment) was “(4.47%)”, the “SAQ 5th question, No onset: number of patients” value (9 months after treatment) was 78 and the “SAQ 5th question, ≧3 times per week: % of patients” value (9 months after treatment) was “(29.42%)”. For the same compound, the “SAQ 5th question, ≧3 times per week: number of patients” value (9 months after treatment) was 513, the “SAQ 5th question, ≧4 times per day: % of patients” value (9 months after treatment) was “(0.92%)” and the “SAQ 5th question, ≧4 times per day: number of patients” value (9 months after treatment) was 16. For the same compound, the “SAQ 6th question, Dissatisfied: % of patients” value (9 months after treatment) was “(0.23%)”, the “SAQ 6th question, Dissatisfied: number of patients” value (9 months after treatment) was 4 and the “SAQ 6th question, Highly satisfied: % of patients” value (9 months after treatment) was “(23.62%)”. For the same compound, the “SAQ 6th question, Highly satisfied: number of patients” value (9 months after treatment) was 412, the “SAQ 6th question, Mostly dissatisfied: % of patients” value (9 months after treatment) was “(1.95%)” and the “SAQ 6th question, Mostly dissatisfied: number of patients” value (9 months after treatment) was 34. For the same compound, the “SAQ 6th question, Mostly satisfied: % of patients” value (9 months after treatment) was “(58.77%)”, the “SAQ 6th question, Mostly satisfied: number of patients” value (9 months after treatment) was 1025 and the “SAQ 6th question, Partly satisfied: % of patients” value (9 months after treatment) was “(15.42%)”. For the same compound, the “SAQ 6th question, Partly satisfied: number of patients” value (9 months after treatment) was 269, the “SAQ 7th question, Dissatisfied: % of patients” value (9 months after treatment) was “(0.11%)” and the “SAQ 7th question, Dissatisfied: number of patients” value (9 months after treatment) was 2. For the same compound, the “SAQ 7th question, Highly satisfied: % of patients” value (9 months after treatment) was “(27.21%)”, the “SAQ 7th question, Highly satisfied: number of patients” value (9 months after treatment) was 474 and the “SAQ 7th question, Most dissatisfied: % of patients” value (9 months after treatment) was “(1.09%)”. For the same compound, the “SAQ 7th question, Most dissatisfied: number of patients” value (9 months after treatment) was 19, the “SAQ 7th question, Mostly satisfied: % of patients” value (9 months after treatment) was “(59.53%)” and the “SAQ 7th question, Mostly satisfied: number of patients” value (9 months after treatment) was 1037. For the same compound, the “SAQ 7th question, Partly satisfied: % of patients” value (9 months after treatment) was “(12.06%)”, the “SAQ 7th question, Partly satisfied: number of patients” value (9 months after treatment) was 210 and the “SAQ Question 1-1 Mildly limited, number of patients” value (9 months after treatment) was 25. For the same compound, the “SAQ Question 1-1 Mildly limited, percent of patients” value (9 months after treatment) was “(1.43%)”, the “SAQ Question 1-1 Moderately limited, number of patients” value (9 months after treatment) was 5 and the “SAQ Question 1-1 Moderately limited, percent of patients” value (9 months after treatment) was “(0.29%)”. The “SAQ Question 1-1 Not limited, number of patients” value (9 months after treatment) was 1643, the “SAQ Question 1-1 Not limited, percent of patients” value (9 months after treatment) was “(94.21%)” and the “SAQ Question 1-1 Other reasons, number of patients” value (9 months after treatment) was 3.
